Laboratory results taken from patent US10858308B2, “Compounds and compositions” (priority 2017, dated 2020).
Marks after values point to notes of the source that are not given here.

Legend:
[1] = system: Candida albicans ATCC 10231; experiment: MIC by broth dilution assay, Candida albicans; assay type: cell-based; settings: 4 experiments, inoculum 3-6.5 × 10^3 cfu/ml, range bacteriostatic-bactericide concentration; for Sample's MIC: 37° C. 18-22 hours; for MIC: ATCC10231, 37° C. 18-22 hours, read-out: Sample's MIC
Protocol: (§1) Minimal inhibitory concentration (MIC) of each compound was tested by broth dilution assay.
(§2) • McFarland standard 0.5 • Falcon round-bottom 5 ml tubes • Disposable loops (1 μl and 10 μl) • Graduated pipettes (20 μl-1000 μl) • Disposable Petri dishes Media • Sterile normal saline • TSB (Tryptic Soy Broth) • TSA (Tryptic Soy Agar) Bacterial and Fungal strains • Salmonella enterica serovar Typhimurium ATCC 14028 • Staphylococcus aureus ATCC 6538 • Candida albicans ATCC 10231
(§3) Compounds 2, 3 and 4 were diluted in dimethyl sulfoxide (DMSO) at 10 mg/ml and were future 2-fold diluted for testing in TSB.
(§4) From a pure o/n culture, material from at least 3-4 colonies was chosen and suspended totally in 4 ml saline in tubes. The suspension was mixed.
(§5) The turbidity of inoculum was adjusted to match that of standard by comparing visually with the McFarland 0.5 standard using white paper with black lines as background.
(§6) The McFarland 0.5 suspension were diluted as follows for the species tested at this course:
(§7) The suspensions were used for inoculation within 15 minutes.
(§8) The Falcon round-bottom 5 ml tubes were inoculated with 500 μl of the inoculum suspension with 500 μl two-fold dilutions of antimicrobial agent using a graduated pipette
(§9) Tubes were sealed and incubated at 37° C. for 18-22 hours. This was done to avoid losing growth media and to avoid cross contamination.
(§10) McFarland 0.5 is approximately 10^8 CFU/ml. Standardization of inoculum is essential because the interpretation of the results is based on a certain inoculum.
(§11) Each tube contained approximately 5×10^5-1×10^6 CFU/ml after inoculation of bacteria and […] 5×10^3-1×10^4 CFU/ml of yeast.
(§12) Purity of the inoculum suspension was checked.
(§13) Growth in the 3 positive control tubes was checked.
(§14) Minimal inhibitory concentration (MIC) was recorded as the lowest concentration of antimicrobial agent with no visible growth.

[2] = system: Staphylococcus aureus ATCC 6538; experiment: MIC by broth dilution assay, Staphylococcus aureus; assay type: cell-based; settings: ATCC6538, 37° C. 18-22 hours, 4 experiments, inoculum 1.2-2.1 × 10^6 cfu/ml, range bacteriostatic-bactericide concentration, read-out: Sample's MIC
Protocol: as §1, §2, §3, §4, §5, §6
Gr-pos.: 50 μl McFarl. 0.5 into 10 ml broth
as §7
The Falcon round-bottom 5 ml tubes were inoculated with 500 μl of the inoculum suspension with 500 μl two-fold dilutions of antimicrobial agent using a graduated pipette […]
as §14

[3] = system: Salmonella enterica serovar Typhimurium ATCC 14028; experiment: MIC by broth dilution assay, Salmonella Typhimurium; assay type: cell-based; settings: for MIC: Salmonella enterica, read-out: Sample's MIC
Protocol: as §1, §2, §3, §4, §5, §6
Gr-neg.: 10 μl McFarl. 0.5 into 10 ml broth
as §7, §8, §9, §10, §11, §12, §13, §14

[4] = system: Herpes Simplex virus-1 (HSV 1); experiment: HSV 1 spread and plaque assay in Vero cells
Vaccinia virus (WR-VV) = assay type: cell-based; parameters: dose or concentration left out as unconfirmed; settings: BSC 40 cells pre-treated
pH of aqueous solution = assay type: physicochemical
Surfactant activity = assay type: physicochemical
[5] = in the presence of 100 μg/ml of the compounds
[6] = in the presence of the compounds

Row | Compound | Sample's MIC [1] | MIC [1] [µg/mL] | MIC [2] [µg/mL] | MIC [3] [µg/mL] | melting point [°C] | HSV-1 infectivity reduced by [4, 5] [%] | HSV-1 infectivity reduced by [4, 6] [%] | inhibition of Vaccinia virus plaque formation (Vaccinia virus (WR-VV)) | Aqueous solution pH (pH of aqueous solution) | Surfactant activity (Surfactant activity) | inhibitory effect on HSV 1 spreading and plaque number ([4]; pre-treated, liquid and agar plaque assay, two days of infection, dose dependent) | Sample's MIC ([3]; Salmonella enterica serovar Typhimurium ATCC 14028, broth dilution, 37° C. 18-22 hours, 4 experiments, inoculum 5 × 10^3 cfu/ml, range bacteriostatic-bactericide concentration) [µg/mL]
1 | Cc1ccc(C(C)C)c(OC(=O)C[N+](C)(C)CCCCCCCCCC[N+](C)(C)CC(=O)Oc2cc(C(C)C)ccc2C)c1 [Compound 2, N^1-{2-[2-methyl-5-(propan-2-yl)phenoxy]-2-oxoethyl}-N^1,N^1,N^10,N^10-tetramethyl-N^10-{2-[5-methyl-2-(propan-2-yl)phenoxy]-2oxoethyl}decane-1,10-bis(aminium) dichloride] | 62.5-125* μg/ml | 62.5 to 125 | 31.2 to 62.5 | 62.5 to 125 | 92 to 96 | 80 | 50 |  |  |  |  | 
2 | Cc1ccc(C(C)C)c(OC(=O)C[N+](C)(C)CCCCCCCCCC[N+](C)(C)CCCCCCCCCC[N+](C)(C)CC(=O)Oc2cc(C(C)C)ccc2C)c1 [Compound 3, N^1-{{2-[2-methyl-5-(propan-2-yl)phenoxy]-(2-oxoethyldimethyl)azaniumyl bromide}decyl}-N^10-{2-[5-methyl-2-(propan-2-yl)phenoxy]-2oxoethyl}-N^1,N^1,N^1,N^10,N^10-tetramethyldecane-1,10-bis(aminium) dichloride] |  | 31.2 to 62.5 | 15.6 to 31.2 | 31.2 to 62.5 |  | 80 | 50 | none of compounds 2 or 3 inhibited Vaccinia virus (VV) plaque formation | 7.2 | Displays Surfactant Activity | strong inhibitory effect | 
3 | N^1-{2-[2-methyl-5-(propan-2-yl)phenoxy]-2-oxoethyl}-N^1,N^1,N^10,N^10-tetramethyl-N^10-{2-[5-methyl-2-(propan-2-yl)phenoxy]-2oxoethyl}decane-1,10-bis(aminium) dichloride [Compound 4] | 31.25 to 62.5 µg/mL |  |  |  |  |  |  |  |  |  |  | 31.25 to 62.5
